From patent publication US12612366B2, “Salts and crystal forms of omecamtiv mecarbil” (Amgen Inc., priority 2018, dated 2026) come the findings set out here.

Data set [1] can be described thus: Moisture sorption (dynamic vapor sorption, DVS). The following applies: 25° C.; for Vapor sorption behaviour (hygroscopicity, form conversion): DVS 0-95% RH. The class given is physicochemical. As to the method:
Moisture balance was collected using a dynamic vapor sorption (DVS) analyzer. Relative humidity (RH) was set to 0, 5, 15, 25, 35, 45, 55, 65, 75, 85 and 95% RH for 2 sorption/desorption cycles at 25° C. Equilibration criteria was set at 0.001% weight. Approximately 10 mg of sample was used.

Data set [2] can be described thus: Solubility: excess solid in water, pH 1.0 or pH 4.5 buffer, filtrate analyzed by HPLC-UV. The class given is physicochemical. As to conditions: for pH given with the water solubility: water solubility sample; for Water solubility / Solubility in pH 1 buffer / Solubility in pH 4.5 buffer: room temperature; for Water solubility: suspension dispersed for at least 24, filtered, HPLC-UV, pH given in brackets. As for the experimental part:
An excess of solid was added to water, pH 1.0 or pH 4.5 buffer to produce a suspension and dispersed for at least 24 at room temperature. Suspensions were filtered. Filtrate was analyzed by HPLC-UV and compared against a standard curve to determine the solution concentration of the crystal form.

SMILES strings stand for the structures. Where a name gives a salt, the structure may show the parent alone.

As for `COC(=O)N1CCN(Cc2cccc(NC(=O)Nc3ccc(C)nc3)c2F)CC1` [Amorphous hydrochloride salt, omecamtiv mecarbil], the “Vapor sorption behaviour (hygroscopicity, form conversion)” value is “hygroscopic and converts to the crystalline bis-hydrochloride monohydrate Form A” in data set [1]; “weight loss due to crystallization to Form A up to 95% RH” in data set [1] (listed as amorphous hydrochloride salt). The “Moisture sorption weight gain” value in data set [1] (by 50% RH) was around 11%.

`COC(=O)N1CCN(Cc2cccc(NC(=O)Nc3ccc(C)nc3)c2F)CC1` [Bis-fumarate crystalline salt form C, omecamtiv mecarbil]: in data set [2], the “pH given with the water solubility” value is on record as 3.1 and the Water solubility is 13.7 mg/mL.

For the molecule `COC(=O)N1CCN(Cc2cccc(NC(=O)Nc3ccc(C)nc3)c2F)CC1` [Bis-malonate crystalline salt, omecamtiv mecarbil], in data set [2], the “pH given with the water solubility” value stood at 3.69 and the Water solubility entry was “greater than 62 mg/mL”.

`COC(=O)N1CCN(Cc2cccc(NC(=O)Nc3ccc(C)nc3)c2F)CC1` [Bis-mesylate crystalline salt form B, omecamtiv mecarbil]: in data set [2], the “Solubility in pH 1 buffer” value is “greater than 23 mg/mL” and the “Solubility in pH 4.5 buffer” value is listed as “greater than 23 mg/mL”.

Consider `COC(=O)N1CCN(Cc2cccc(NC(=O)Nc3ccc(C)nc3)c2F)CC1` [Bis-naphthalate-2-sulfonate crystalline salt] [omecamtiv mecarbil], for which, in data set [2], the “Solubility in pH 1 buffer” value was “greater than 10 mg/mL” and the “Solubility in pH 4.5 buffer” value is reported as “greater than 10 mg/mL”.

On to `COC(=O)N1CCN(Cc2cccc(NC(=O)Nc3ccc(C)nc3)c2F)CC1` [Bis-sulfate crystalline salt form A, omecamtiv mecarbil], for which, in data set [2], the “pH given with the water solubility” value was found to be 1.5 and the Water solubility was 16 mg/mL.

`COC(=O)N1CCN(Cc2cccc(NC(=O)Nc3ccc(C)nc3)c2F)CC1` [Bis-sulfate crystalline salt form B, omecamtiv mecarbil]: in data set [2], the “pH given with the water solubility” value is listed as 3.5 and the Water solubility came out at 9 mg/mL.

Consider `COC(=O)N1CCN(Cc2cccc(NC(=O)Nc3ccc(C)nc3)c2F)CC1` [Bis-tartrate crystalline salt form A, omecamtiv mecarbil], for which, in data set [2], the “pH given with the water solubility” value turned out to be 3.28 and the Water solubility is on record as above 53 mg/mL.

Turning to `COC(=O)N1CCN(Cc2cccc(NC(=O)Nc3ccc(C)nc3)c2F)CC1` [Hemi-succinate crystalline salt, omecamtiv mecarbil], in data set [2], the “pH given with the water solubility” value came out at 4.7 and the Water solubility was found to be 7.4 mg/mL.

Regarding `COC(=O)N1CCN(Cc2cccc(NC(=O)Nc3ccc(C)nc3)c2F)CC1` [Mesylate crystalline salt form A, omecamtiv mecarbil], in data set [2], the “pH given with the water solubility” value was determined as 1.39 and the Water solubility result is recorded as “greater than 72 mg/mL”.

Take `COC(=O)N1CCN(Cc2cccc(NC(=O)Nc3ccc(C)nc3)c2F)CC1` [Mono-napadisylate crystalline salt, omecamtiv mecarbil]: in data set [2], the “pH given with the water solubility” value was 2.35 and the Water solubility turned out to be 0.3 mg/mL.

Consider `COC(=O)N1CCN(Cc2cccc(NC(=O)Nc3ccc(C)nc3)c2F)CC1` [bis-maleate crystalline salt form A, omecamtiv mecarbil], for which, in data set [2], the “pH given with the water solubility” value is given as 3.7 and the Water solubility amounted to 3.8 mg/mL.
